{
  "source": "patent US8173360B2",
  "about": "“Cell death inhibitor” (Takeda Pharmaceutical Company Limited, priority 2002, dated 2012)",
  "key": {"heme oxygenase-1": {"test_system": "heme oxygenase-1", "test": "Heme oxygenase-1 production-increasing activity (western blotting)", "format": "cell-based, rat", "conditions": "for Increasing Rate of Production (heme oxygenase-1): 24 hours, without compound = 1", "method": "The plate was washed 3 times with Medium 199 medium to remove serum. Compound I was added to the plate, followed by incubation for 24 hours at 37° C. and 5% CO2. After completion of the incubation, the cardiomyocytes were washed once with PBS(−), and 100 μl of cell lysis buffer [10 mM Tris(hydroxymethyl)aminomethane, pH 7.4, 150 mM NaCl, 1 mM EDTA.2Na, 1 mM ethylene glycol-bis(β-aminoethylether]-N,N,N′,N′-tetraacetic acid, 0.5 mM (p-aminophenyl)methanesulfonyl fluoride hydrochloride, 200 μM sodium β-glycerophosphate n-hydrate, 20 mM NaF, 2 mM sodium diphosphate decahydrate, 10 μg/ml aprotinin, 10 μg/ml leupeptin, 1% Triton X-100, 0.5% Nonidet P40, 0.1% sodium dodesyl sulfate) was added thereto. After the cell debris was scraped from the plate using a cell scraper, the cell lysis buffer was recovered. The recovered cell lysis buffer was mixed with a sample buffer (Tris-SDS-ME Sample Buffer; manufactured by Daiichi Pure Chemicals Co., Ltd.) in an equal volume. The mixture was heat-treated at 95° C. for 5 minutes, followed by SDS polyacrylamide electrophoresis using Multigel (manufactured by Daiichi Pure Chemicals Co., Ltd.). Next, nitrocellulose membrane (Hybond-ECL; manufactured by Amersham Pharmacia Biotech) soaked in a blotting buffer [0.1 M Tris(hydroxymethyl)aminomethane, 0.192 M glycine, 20% ethanol] for at least 10 minutes, blotting filter paper, dialysis membrane and gel were set on Horize-Blot (manufactured by ATTO, Co.) and treated with 100 mA/gel (64 cm^2) for an hour to adsorb the protein in the gel onto the nitrocellulose membrane. Thereafter, the nitrocellulose membrane was soaked in a blocking buffer [TTBS buffer (20 mM Tris-HCl, pH 7.6, 0.137 M NaCl, 0.1% Tween-20) containing 5% skimmed milk powders] and stirred at room temperature for an hour for blocking. […] After completion of the reaction, the membrane was washed 3 times with TTBS buffer and the amount of protein was determined using a western blotting detection reagent (ECL+Plus; manufactured by Amersham) and Hyperfilm ECL (manufactured by Amersham). […]"}, "rat MIF": {"molecular_target": "T1, rat MIF (Rattus norvegicus, UniProt P30904)", "T1 construct": "the region encoding MIF was amplified from the complementary DNA (cDNA) library of rat and mouse brains; made in house; host or cells: Escherichia coli BL21 (DE3)", "test": "Binding to immobilized rat MIF by surface plasmon resonance (BIACORE 3000)", "conditions": "10 μM in PBS, rat MIF immobilized on sensor chip CM5", "method": "The binding of rat MIF obtained in REFERENCE EXAMPLE 6 to Compound 1 obtained in REFERENCE EXAMPLE 1 was analyzed using BIACORE 3000 (manufactured by Biacore).\nRat MIF was immobilized on a sensor chip CM5 (manufactured by Biacore). Then, phosphate buffered saline (PBS) containing 10 μM of Compound 1 was flown over the sensor chip and changes in the surface plasmon resonance signal were monitored as the binding of the compound to rat MIF.\nRat MIF obtained in REFERENCE EXAMPLE 6 was immobilized on a sensor chip CM5 (manufactured by Biacore Co., Ltd.). Thereafter, phosphate buffered saline (PBS) containing 10 μM of 3-[2-(4-oxo-4H-1,3-benzothiazin-2-yl)-4-pyridyl]propionic acid (the compound of EXAMPLE 308 described in WO 03/020719) was flown over the sensor chip and changes in surface plasmon resonance signal were monitored as the binding of the compound to rat MIF."}, "[1]": {"test_system": "Human normal articular chondrocytes", "test": "Inhibitory activity against cell death of human articular chondrocytes induced by NO (MTT)", "format": "cell-based", "conditions": "for Cell Death Inhibition Rate: 1.5 mM sodium nitroprusside 5 hours, mean ±SD", "method": "Human normal articular chondrocytes (Clonetics, Inc.) were proliferated in a growth medium for articular chondrocytes (CGM, Clonetics, Inc.) in monolayer culture. Then, the cells were suspended in 1.2% alginate-containing 155 mM NaCl solution in a density of 2.0×10^6 cells/ml, and beads having a 2 mm diameter were prepared using a syringe with a 22 gauge needle. The beads were incubated in a differentiation medium for articular chondrocytes (CDM, Clonetics, Inc.) charged in a 96-well round-bottomed plate (1 bead/well, manufactured by FALCON) for further 7 days. The medium was replaced by α-modified minimum essential medium containing Compound 1 (0.1 μM or 1 μM) and 10% fetal cow serum, followed by incubation for 48 hours and then for 5 hours in the co-presence of 1.5 mM sodium nitroprusside (NO generator, manufactured by Sigma). As control drugs, caspase 3 inhibitor (Z-DEVD-FMK (SEQ ID NO: 5), 100 μM, manufactured by R & D Systems, Inc.) and caspase 9 inhibitor (Z-LEHD-FMK (SEQ ID NO: 6), 100 μM, manufactured by R & D Systems, Inc.) were similarly monitored for their activities. After completion of the experiment, alginate was removed and the cell survival rate was determined by the MTT technique.\nIn the table, the numerical values indicate mean values (±SD) of the cell death inhibition rates as converted from the measurement data by the MTT technique. The cell survival rate after the addition of 1.5 mM sodium nitroprusside (without addition of either Compound 1 or control drug) was 31.9%."}},
  "data": [
    {"smiles": "O=c1nc(-c2ccccn2)sc2ccccc12", "note": "[Compound 1, 2-(2-Pyridyl)-4H-1,3-benzothiazin-4-one]", "values": [
      {"measurement": "Increasing Rate of Production (heme oxygenase-1)", "setting": "heme oxygenase-1; 0.04 μM", "value": 1.6},
      {"measurement": "Increasing Rate of Production (heme oxygenase-1)", "setting": "heme oxygenase-1; 0.4 μM", "value": 2.5},
      {"measurement": "production amount of heme oxygenase-1", "setting": "heme oxygenase-1; statement in words", "value": "increases the production amount of heme oxygenase-1"},
      {"measurement": "binding of the compound to rat MIF (changes in surface plasmon resonance signal)", "setting": "rat MIF", "value": "binds to MIF"},
      {"measurement": "Cell Death Inhibition Rate", "setting": "[1]; 0.1 μM", "value": "44.7 ± 0.9"},
      {"measurement": "Cell Death Inhibition Rate", "setting": "[1]; 1 μM", "value": "57.6 ± 7.0"},
      {"measurement": "inhibitory activity against cell death of human articular chondrocytes induced by NO", "setting": "[1]; statement in words", "value": "has the inhibitory activity against the cell death of human articular chondrocytes induced by NO"}
    ]}
  ]
}
